Measurements taken from patent EP0407583A1, “DERIVATIVES OF DICHLOR[…] ACYLAMIDO[…] AND INSECTICIDAL, FU[…] HEMATOCIDAL PREPARATIONS BASED ON THEM” (priority 1989, dated 1990).

Key:
gall nematodes = assay: Nematocidal effect, field test on affected tomato plants; format: in vivo; conditions: 5 m^2 plots of tomato plants affected by nematodes
Experimental: In the field conditions, the plots of 5 m^2 in size of tomato plants affected by nematodes were treated with the claimed nematocidal compositions and the known nematocides.

Solubility (qualitative) = conditions: water, alcohols, acetone
[1] = system: invasion larvae of gall nematodes; assay: Nematocidal effect on invasion larvae, experimental (object glass) test; format: in vivo; conditions: 1% solution in distilled water; 100 invasion larvae; 24 hours
Experimental: A nematocidal effect of the composition, according to the invention, was tested on invasion larvae of gall nematodes. To this end, 1 droplet of a suspension containing 100 invasion larvae of gall nematodes was placed onto the object glasses with cells. 1 droplet of the composition of the invention was added thereinto. 1 drop of distilled water was added to the control cell instead of the composition, according to the invention. The glasses with test and control cells were placed onto Petri dish with a moisten ashless filter, and 24 hours later the killed nematodes were recorded. The tests were 3-fold repeated. The study of a nematocidal activity was conducted in comparison with a known nematocidal composition based on 0,0-dimethyl-0-/2-(N,N'-diethylcarbamoyl)-1-methyl-2-chlorovinyl/ /phosphate.

Diplodia zeae [2] = assay: Inhibition of phytopathogenic fungi growth, laboratory test on potato-dextrose agar; format: cell-based; conditions: active principle 0.01 % by mass in potato-dextrose agar
Experimental: (§1) A fungicidal composition based on this compound was prepared in the form of a 0.01% solution thereof in distilled water. A fungicidal action of the composition, according to the invention, was tested for inhibition of vegetative fungi growth such as Fusarium moniliforme, Ventura inaequalis, Rhyzoctonia ciolaceae, Botrytis cinereae, Verticillium albo-atrum, Diplodia zeae, Fusarium oxysporum, Rhoma betae, Rhyzoctonia aderholdii, Aspergillus niger, Alternaria sobani, Botrytis allii, Aspergillus fumigatis, Fusarium culmorum, Penicillium cyclopium affecting potato, sugar beet, cotton seeds either in laboratory or field conditions. For testing it to the Petri dishes containing potato-dextrose agar the composition of the invention was.added at the concentration of an active principle of 0.01 % by mass. The Petri dishes containing the same agar culture were inoculated with a mycelium of phytopathogenic fungi. For control dishes the phytopathogenic fungi were inoculated on agar without using the composition of the invention. A fungicidal effect of the composition, according to the invention was tested in comparison with the known fungicidal compositions based on 2,3-dichloro-1,4-naphthoquinone, zinc N,N'-ethylene-bis-dithiocarbamate and tetramethylthiuram disulphide.

Rhoma betae [3] = assay: as above; format: cell-based; conditions: active principle 0.01 % by mass in potato-dextrose agar
Experimental: as §1

Botrytis allii [4] = assay: as above; format: cell-based; conditions: active principle 0.01 % by mass in potato-dextrose agar
Experimental: as §1

Fusarium culmorum [5] = assay: as above; format: cell-based; conditions: active principle 0.01 % by mass in potato-dextrose agar
Experimental: as §1

Fusarium moniliforme [6] = assay: as above; format: cell-based; conditions: active principle 0.01 % by mass in potato-dextrose agar
Experimental: as §1

Penicillium cyclopium [7] = assay: as above; format: cell-based; conditions: active principle 0.01 % by mass in potato-dextrose agar
Experimental: as §1

Verticillium albo-atrum [8] = assay: as above; format: cell-based; conditions: active principle 0.01 % by mass in potato-dextrose agar
Experimental: as §1

Botrytis cinereae [9] = assay: as above; format: cell-based; conditions: active principle 0.01 % by mass in potato-dextrose agar
Experimental: as §1

Rhyzoctonia violaceae [10] = assay: as above; format: cell-based; conditions: active principle 0.01 % by mass in potato-dextrose agar
Experimental: as §1

Rhyzoctonia aderholdii [11] = assay: as above; format: cell-based; conditions: active principle 0.01 % by mass in potato-dextrose agar
Experimental: as §1

Venturia inaequalis [12] = assay: as above; format: cell-based; conditions: active principle 0.01 % by mass in potato-dextrose agar
Experimental: as §1

Fusarium oxysporum [13] = assay: as above; format: cell-based; conditions: active principle 0.01 % by mass in potato-dextrose agar
Experimental: as §1

Alternaria sobani [14] = assay: as above; format: cell-based; conditions: active principle 0.01 % by mass in potato-dextrose agar
Experimental: as §1

Aspergillus niger [15] = assay: as above; format: cell-based; conditions: active principle 0.01 % by mass in potato-dextrose agar
Experimental: as §1

Aspergillus fumigatis [16] = assay: as above; format: cell-based; conditions: active principle 0.01 % by mass in potato-dextrose agar
Experimental: as §1

Diplodia zeae [17] = assay: Inhibition of phytopathogenic fungi, field test on affected potato plants; format: in vivo; conditions: 5 m^2 plots of affected potato plants sprayed
From the text: (§2) For field tests the plots of 5 m^2 in size with potato plants affected by Fusarium moniliforme, Venturia inaequalis, Rhyzoctonia violaceae, Botrytis cinereae, Verticillium albo-atrum, Diplodia zeae, Fusarium oxysporum, Rhoma betae, Rhyzoctonia aderholdii, Aspergillus niger, Alternaria sobani, Botrytis allii, Aspergillus fumigatis, Fusarium culmorum, Penicillium cyclopium were sprayed with the fungicide of the invention. To compare, the similar plots of the affected potato plants were aprayed with the known compositions indicated above.

Rhoma betae [18] = assay: as above; format: in vivo; conditions: 5 m^2 plots of affected potato plants sprayed
From the text: as §2

Botrytis allii [19] = assay: as above; format: in vivo; conditions: 5 m^2 plots of affected potato plants sprayed
From the text: as §2

Fusarium culmorum [20] = assay: as above; format: in vivo; conditions: 5 m^2 plots of affected potato plants sprayed
From the text: as §2

Fusarium moniliforme [21] = assay: as above; format: in vivo; conditions: 5 m^2 plots of affected potato plants sprayed
From the text: as §2

Penicillium cyclopium [22] = assay: as above; format: in vivo; conditions: 5 m^2 plots of affected potato plants sprayed
From the text: as §2

Verticillium albo-atrum [23] = assay: as above; format: in vivo; conditions: 5 m^2 plots of affected potato plants sprayed
From the text: as §2

Botrytis cinereae [24] = assay: as above; format: in vivo; conditions: 5 m^2 plots of affected potato plants sprayed
From the text: as §2

Rhyzoctonia violaceae [25] = assay: as above; format: in vivo; conditions: 5 m^2 plots of affected potato plants sprayed
From the text: as §2

Rhyzoctonia aderholdii [26] = assay: as above; format: in vivo; conditions: 5 m^2 plots of affected potato plants sprayed
From the text: as §2

Venturia inaequalis [27] = assay: as above; format: in vivo; conditions: 5 m^2 plots of affected potato plants sprayed
From the text: as §2

Fusarium oxysporum [28] = assay: as above; format: in vivo; conditions: 5 m^2 plots of affected potato plants sprayed
From the text: as §2

Alternaria sobani [29] = assay: as above; format: in vivo; conditions: 5 m^2 plots of affected potato plants sprayed
From the text: as §2

Aspergillus niger [30] = assay: as above; format: in vivo; conditions: 5 m^2 plots of affected potato plants sprayed
From the text: as §2

Aspergillus fumigatis [31] = assay: as above; format: in vivo; conditions: 5 m^2 plots of affected potato plants sprayed
From the text: as §2

## O=C(NP(=O)(Nc1ccc(Cl)cc1)Nc1ccc(Cl)cc1)c1ccc(Br)cc1 [Example 18, para-bromobenzoylamidophosphoric acid di-para-chloroanilide]
Gall nematodes
  Death of larvae, %, conditions field: 92%
Solubility (qualitative)
  solubility: soluble in water, alcohols, acetone
[1]
  Death of larvae, %, conditions experimental: 89%

## O=C(NP(=O)(Nc1ccc(Cl)cc1[N+](=O)[O-])Nc1ccc(Cl)cc1[N+](=O)[O-])c1ccc(Br)cc1 [Example 16, para-bromobenzoylamidophosphoric acid di-para-chloro-ortho--nitroanilide]
Diplodia zeae [2]
  Inhibition of growth of phytopathogenic fungi colonies, % Diplodia zeae test laboratory: 100%
Rhoma betae [3]
  Inhibition of growth of phytopathogenic fungi colonies, % Rhoma betae test laboratory: 100%
Botrytis allii [4]
  Inhibition of growth of phytopathogenic fungi colonies, % Botrytis allii test laboratory: 100%
Fusarium culmorum [5]
  Inhibition of growth of phytopathogenic fungi colonies, % Fusarium culmorum Tests laboratory: 100%
Fusarium moniliforme [6]
  Inhibition of growth of phytopathogenic fungi colonies, % Fusatium monili-forme test laboratory: 74%
Penicillium cyclopium [7]
  Inhibition of growth of phytopathogenic fungi colonies, % Penicillium cyclopium Tests laboratory: 80%
Verticillium albo-atrum [8]
  Inhibition of growth of phytopathogenic fungi colonies, % Verticillium albo--atrum test laboratory: 100%
Botrytis cinereae [9]
  Inhibition of growth of phytopathogenic fungi colonies, % Botrytis cinereae test laboratory: 100%
Rhyzoctonia violaceae [10]
  Inhibition of growth of phytopathogenic fungi colonies, % Rhyzoctonia violaceae test laboratory: 87%
Rhyzoctonia aderholdii [11]
  Inhibition of growth of phytopathogenic fungi colonies, % Rhyzoctonia aderholdii test laboratory: 100%
Venturia inaequalis [12]
  Inhibition of growth of phytopathogenic fungi colonies, % Venturia inaequalis test laboratory: 100%
Fusarium oxysporum [13]
  Inhibition of growth of phytopathogenic fungi colonies, % Fusarium oxysporum test laboratory: 98%
Alternaria sobani [14]
  Inhibition of growth of phytopathogenic fungi colonies, % Alternaria sobani test laboratory: 100%
Aspergillus niger [15]
  Inhibition of growth of phytopathogenic fungi colonies, % Aspergillus niger test laboratory: 100%
Aspergillus fumigatis [16]
  Inhibition of growth of phytopathogenic fungi colonies, % Aspergillus fumigatis Tests laboratory: 92%
Solubility (qualitative)
  solubility: soluble in water, alcohols, acetone
Diplodia zeae [17]
  Inhibition of growth of phytopathogenic fungi colonies, % Diplodia zeae test field: 100%
Rhoma betae [18]
  Inhibition of growth of phytopathogenic fungi colonies, % Rhoma betae test field: 99%
Botrytis allii [19]
  Inhibition of growth of phytopathogenic fungi colonies, % Botrytis allii test field: 100%
Fusarium culmorum [20]
  Inhibition of growth of phytopathogenic fungi colonies, % Fusarium culmorum Tests field: 99%
Fusarium moniliforme [21]
  Inhibition of growth of phytopathogenic fungi colonies, % Fusatium monili-forme test field: 73%
Penicillium cyclopium [22]
  Inhibition of growth of phytopathogenic fungi colonies, % Penicillium cyclopium Tests field: 79%
Verticillium albo-atrum [23]
  Inhibition of growth of phytopathogenic fungi colonies, % Verticillium albo--atrum test field: 100%
Botrytis cinereae [24]
  Inhibition of growth of phytopathogenic fungi colonies, % Botrytis cinereae test field: 100%
Rhyzoctonia violaceae [25]
  Inhibition of growth of phytopathogenic fungi colonies, % Rhyzoctonia violaceae test field: 86%
Rhyzoctonia aderholdii [26]
  Inhibition of growth of phytopathogenic fungi colonies, % Rhyzoctonia aderholdii test field: 100%
Venturia inaequalis [27]
  Inhibition of growth of phytopathogenic fungi colonies, % Venturia inaequalis test field: 100%
Fusarium oxysporum [28]
  Inhibition of growth of phytopathogenic fungi colonies, % Fusarium oxysporum test field: 97%
Alternaria sobani [29]
  Inhibition of growth of phytopathogenic fungi colonies, % Alternaria sobani test field: 98%
Aspergillus niger [30]
  Inhibition of growth of phytopathogenic fungi colonies, % Aspergillus niger test field: 100%
Aspergillus fumigatis [31]
  Inhibition of growth of phytopathogenic fungi colonies, % Aspergillus fumigatis Tests field: 91%
